Series [1] in a line: half-life compared with APO.
Series [2] is described as follows: activity compared with APO. The conditions noted are these: greater than that of APO. How it is done: For this reason, when said compounds are given at suitable doses over 24 hours, effects which are rather more beneficial than those of APO are obtained.
The nature of series [3]: accelerated stability test of the patch formulation. The settings on record: with antioxidant (sodium metabisulphite), 15 days at 40° C. and 75% RH. It is filed as physicochemical.
A short description of series [4]: in vitro cell permeation study with guinea-pig skin (Type III patch). The series is classed as in vitro ADME. The method, then: Then, three particular non-limiting examples of the pharmaceutical composition used to form the matrix of a Type III patch will be illustrated (FIG. 3). The Type III patch, containing a matrix made up of these three types of formulations, will then be “tested” on guinea-pig skin, to analyse the permeation of the active principle, both with regard to the accumulation of active principle over 48 hours (FIG. 4) and with regard to the flow (also over 48 hours, FIG. 5).

Series [5] is described as follows: toxicity compared with APO.
The conditions of series [6]: i.v., s.c., i.m., rectal, sublingual or intranasal route; cited from earlier work.
The conditions of series [7]: continuous subcutaneous infusion, 2-5 mg/hour; cited from earlier work.

Take `CCCN1CCc2cccc3c2[C@H]1Cc1ccc(O)c(O)c1-3.Cl` [Compound (1), R(−)-propylnorapomorphine hydrochloride]: in series [1], the “half-life relative to APO” value was “greater”. The “activity relative to APO” value in series [2] worked out at 10 times. In addition, in series [3], the “chemical stability in the formulation of the patch” value is reported as “demonstrated”. Besides, the skin permeability entry in series [4] is listed as “sufficient”. For the same compound, the “toxicity relative to APO” value in series [5] is “lower”.

Consider `CCCN1CCc2cccc3c2[C@@H]1Cc1ccc(O)c(O)c1-3.Cl` [Compound (2), S(+)-propylnorapomorphine hydrochloride], for which, in series [1], the “half-life relative to APO” value is reported as “greater”. Also, the “activity relative to APO” value in series [2] worked out at 10 times. Moreover, the “toxicity relative to APO” value in series [5] is given as “lower”.

Regarding `CN1CCc2cccc3c2[C@H]1Cc1ccc(O)c(O)c1-3` [Apomorphine], the “latent period (attack)” value in series [6] was “about 15 ′”. The “local side effect at the infusion site” value in series [7] was “subcutaneous granulomas form around the infusion site”.

These data come from patent US6592893B1, “Transdermal patch and topical compositions comprising propylnorapomorphine” (priority 1998, dated 2003).
